Results on 8 molecules are retold here after PMC3913017, “A Method for Fast Assessment of OP/CB Exposure in the Japanese Quail (Coturnix coturnix japonica) Using Combined Esterases Enzyme Activity as Biomarkers” (Enzyme Research, 2014).

For data set [1], the system named is cholinesterase (ChE) in liver homogenate. Put plainly: Substrate hydrolysis, liver homogenate ChE. The class given is biochemical, Japanese quail (Coturnix coturnix japonica). The following applies: 1 mM AcTChI, BuTChI, 2 mM PrTChI.
Experimental: (§1) To obtain plasma, 1 mL blood samples were added to anticoagulant (heparin, 3.7 mg, final concentration 0.1%) in 5 mL centrifuge tubes. Plasma was separated by centrifugation at 5000 g for 10 min. The liver was removed using a scalpel, cut into small pieces (2-3 mm^3), and rinsed until the blood was fully removed. The liver was then placed on ice in 5 mL tubes (5 mm internal diameter) and homogenized using a mechanically driven homogenizer with phosphate buffer (0.1 M, pH 8) with a 1 : 10 ratio (w/v) of 1 part of liver tissue to 9 parts of buffer and a speed of 10000 rpm. Homogenisation required 3 min; after every one min or so of homogenization, the mixture was rested for 30 s to allow cooling. The homogenate was then centrifuged at 5000 g for 10 min and the supernatant fraction was retained and used for subsequent analyses.
(§2) Enzyme activity was determined at room temperature 25°C by the Ellman method [18], and using thioacetate (PSA) for measuring CbE enzyme activity or by using thiocholine (e.g., AcTChI, BuTChI, or PrTChI substrate) for measuring ChE enzyme activities [19]. […] Enzyme activities were calculated using an extinction coefficient of 13.6 mM^−1 cm^−1 for TNB [21] and are expressed as units (1 U ≡ 1 μmol ≡ 1000 nmol of substrate hydrolysed per min) per g wet weight of liver homogenate, while for plasma they are expressed as U/mL [2]. […]
Data set [2] addresses T1, cholinesterase (ChE) in blood plasma (Coturnix japonica, UniProt A0A8C2YFF6). Put plainly: Substrate hydrolysis and kinetics, blood plasma ChE. The class given is biochemical, Japanese quail (Coturnix coturnix japonica). The following applies: for reaction rate of substrate hydrolysis, plasma: blood plasma, 1 mM AcTChI, BuTChI, 2 mM PrTChI.
Experimental: as §1
(§3) Enzyme activity was determined at room temperature 25°C by the Ellman method [18], and using thioacetate (PSA) for measuring CbE enzyme activity or by using thiocholine (e.g., AcTChI, BuTChI, or PrTChI substrate) for measuring ChE enzyme activities [19]. […] Substrate solutions (final concentration 2 mM for PrTChI and PSA, while 1 mM for AcTChI and BuTChI) were prepared and used on the same day and kept on ice during use. Enzyme activities were calculated using an extinction coefficient of 13.6 mM^−1 cm^−1 for TNB [21] and are expressed as units (1 U ≡ 1 μmol ≡ 1000 nmol of substrate hydrolysed per min) per g wet weight of liver homogenate, while for plasma they are expressed as U/mL [2]. All measurements in this paper were carried out in duplicate.
For data set [3], the target named is carboxylesterase (CbE) in blood plasma. Nature of the data set: In vitro inhibition of blood plasma CbE by CB/OP pesticides (Ellman, PSA substrate). The data set is classed as biochemical, Japanese quail (Coturnix coturnix japonica). The following applies: for IC50: substrate PSA, 30 min 25°C, mean ± SE, read-out: Half maximal inhibitory concentration (IC50), PSA. Background: In Ellman's method for cholinesterases, released thiocholine reacts with DTNB.
Experimental: To obtain plasma, 1 mL blood samples were added to anticoagulant (heparin, 3.7 mg, final concentration 0.1%) in 5 mL centrifuge tubes. Plasma was separated by centrifugation at 5000 g for 10 min.
as §3
Then esterases enzyme activity was measured as explained in the above section. For the measurement of half maximal inhibitory concentrations (IC50), samples were inhibited for 30 min at room temperature 25°C with appropriate concentration of CB or OP pesticide compounds, depending on preliminary range finding tests. Controls that were incubated with phosphate buffer pH 8.0 were included. Then the enzyme activity was determined as described above. Then the data were fitted with nonlinear regression analysis using a single exponential decay by SigmaPlot 11 (Systat software, Inc.).

For another data set, the system named is quails. The following applies: cited from earlier work.
The subject of data set [4] is carboxylesterase (CbE) in blood plasma. Put plainly: Inhibition rate constant (ki), blood plasma CbE (PSA substrate). The data set is classed as biochemical, Japanese quail (Coturnix coturnix japonica). The following applies: 4 mM methomyl, 2 mM parathion, malathion, trichlorfon, 1–60 min, 25°C, mean ± SE. Here is the method: Blanks were also run at each selected inhibitor for each based on the absorbance tested. Then the enzyme activity was determined as described in above. The decrease in esterases enzyme activity over different times (1–60 min) at room temperature 25°C was detected. Then the data of inhibition time courses at different times after inhibition was fitted with a single exponential decay using SigmaPlot 11. However, the percentage inhibition was calculated from the ratio between the activity of an exposed sample and unexposed controls by the following formula: (1) % Inhibition =[…].

Data set [5] deals with T1, cholinesterase (ChE) in blood plasma. Put plainly: Inhibition rate constant (ki), blood plasma ChE (thiocholine substrates). The following applies: for ki value, range: blood plasma, range over the substrates AcTChI, BuTChI, PrTChI and PSA.
Experimental: as §3
Controls that were incubated with phosphate buffer pH 8.0 were included when appropriated. Blanks were also run at each selected inhibitor for each based on the absorbance tested. Then the enzyme activity was determined as described in above. The decrease in esterases enzyme activity over different times (1–60 min) at room temperature 25°C was detected. Then the data of inhibition time courses at different times after inhibition was fitted with a single exponential decay using SigmaPlot 11. However, the percentage inhibition was calculated from the ratio between the activity of an exposed sample and unexposed controls by the following formula: (1) % Inhibition =Esterases enzyme activity with inhibitor/Esterases enzyme activity without inhibitor×100.
For data set [6], the system named is carboxylesterase (CbE) in liver homogenate. Put plainly: Substrate hydrolysis and kinetics, liver homogenate CbE (PSA). The data set is classed as biochemical, Japanese quail (Coturnix coturnix japonica).
Experimental: as §1, §3
Data set [7] has as its system carboxylesterase (CbE) in blood plasma. Nature of the data set: Substrate hydrolysis, blood plasma CbE (PSA). The class given is biochemical, Japanese quail (Coturnix coturnix japonica). The note with it: 2 mM PSA.
Experimental: as §1, §2
The target of data set [8] is T1, cholinesterase (ChE) in blood plasma. Put plainly: In vivo oral exposure 48 h, plasma ChE inhibition. More on the design: species or system Japanese quail (Coturnix coturnix japonica). Here is the method:
The extent of inhibition of esterases enzyme activity was also assessed following in vivo exposure of test of quail by oral dosing (n = 15) were exposed to test solutions of parathion, malathion, methomyl, trichlorfon, or control (water) in cages. […] Samples were prepared and assayed as explained in the above section.

In the next data set the test system is ChE enzyme. Put plainly: Incubation with general serine esterase inhibitor, ChE activity. The following applies: 3 mM inhibitor. The class given is biochemical, Japanese quail (Coturnix coturnix japonica).
The next data set relates to CbE enzyme. Put plainly: Incubation with general serine esterase inhibitor, CbE activity. The data set is classed as biochemical, Japanese quail (Coturnix coturnix japonica). The following applies: 3 mM inhibitor.
[9] abbreviates: read-out: inhibition of control activity.

Structures are written as SMILES. Where two headings read alike, the source gives them in different places.

T1 sequence (A0A8C2YFF6 30-604): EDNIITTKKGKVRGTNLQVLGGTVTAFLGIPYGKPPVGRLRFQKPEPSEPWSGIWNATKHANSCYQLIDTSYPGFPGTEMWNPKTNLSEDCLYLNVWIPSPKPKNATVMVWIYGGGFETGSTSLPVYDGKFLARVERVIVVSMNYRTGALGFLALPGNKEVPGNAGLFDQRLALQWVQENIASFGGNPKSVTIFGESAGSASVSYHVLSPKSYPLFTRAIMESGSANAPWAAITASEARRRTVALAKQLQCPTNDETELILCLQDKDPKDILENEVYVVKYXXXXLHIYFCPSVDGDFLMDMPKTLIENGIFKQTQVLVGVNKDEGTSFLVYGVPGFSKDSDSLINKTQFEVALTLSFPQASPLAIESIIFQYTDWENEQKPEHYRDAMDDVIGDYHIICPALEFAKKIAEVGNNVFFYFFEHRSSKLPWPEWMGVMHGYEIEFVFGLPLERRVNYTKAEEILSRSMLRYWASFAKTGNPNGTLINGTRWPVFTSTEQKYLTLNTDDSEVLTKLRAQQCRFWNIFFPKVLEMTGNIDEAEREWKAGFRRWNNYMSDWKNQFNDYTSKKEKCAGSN

As to `CCCC(=O)SCC[N+](C)(C)C.[I-]` [BuTChI, (2-mercaptoethyl) trimethylammonium iodide butyrate], the “reaction rate of substrate hydrolysis, liver homogenate” value (“reaction rate … liver homogenate” below) in [1] was determined as 304.5 nmol/min/g. For the same molecule, in data set [2] (blood plasma ChE, Figure 4(a)), the Vmax came to 1011 nmol/min/mL. Also, the Km in data set [2] (blood plasma ChE, substrate 0.125–2 mM, read-out: Km (apparent Michaelis constant)) turned out to be 394 µM. For the same molecule, the “reaction rate of substrate hydrolysis, plasma” value (from here on “reaction rate … plasma”) in [2] was found to be 1321.5 nmol/min/mL.
As for `CCOC(=O)CC(SP(=S)(OC)OC)C(=O)OCC` (stereo not shown) [Malathion, S-1,2-bis(ethoxycarbonyl) ethyl O,O-dimethyl phosphorodithioate], the IC50 in data set [3] was found to be 910 ± 400 µM. In addition, the “median lethal dose (LD50)” value with quails (oral, quails) is given as 400 mg/kg. Also, the “Rate constant inhibition (ki), PSA” value in data set [4] is recorded as 175.6 ± 16.0 × 10^−3 min^−1. The “ki value, range” value in data set [5] was 0.0358 to 0.1756 min⁻¹. Further, the inhibition at 2000 µM in data set [5] (setting [9]) is 83 to 99%.
For `CNC(=O)ON=C(C)SC` [Methomyl, S-methyl-N((methylcarbamoyl)oxy) thioacetimidate], the “CbE enzyme activity sensitivity to inhibition” value in data set [3] (in vitro, PSA, Figure 10(a)) is given as “insensitive to the CB methomyl except at high concentrations”. Also, in data set [3], the IC50 was 610 ± 20 µM. Moreover, the “median lethal dose (LD50)” value in the data set on quails (in vivo, po) is reported as 24.2 mg/kg. The “Rate constant inhibition (ki), PSA” value in [4] is on record as 345.3 ± 12.4 × 10^−3 min^−1. The “ki value, range” value in [5] fell in the range of 0.1224 to 0.5674 min⁻¹. Also, the inhibition at 4000 µM in data set [5] (setting [9]) is 83 to 99%.
Turning to `CC(=O)Sc1ccccc1` [PSA, thiophenyl acetate], the Vmax in data set [6] (liver CbE, Figure 4(b)) was determined as 1195 nmol/min/g. The Km in data set [6] (liver CbE, substrate 0.25–4 mM, read-out: apparent Km) was 713 µM. Moreover, in [6] (liver homogenate, 2 mM PSA), the “reaction rate … liver homogenate” value turned out to be 1.765 µmol/min/g. In addition, in [7], the “reaction rate … plasma” value came to 68.9 nmol/min/mL.
`CCOP(=S)(OCC)Oc1ccc([N+](=O)[O-])cc1` [Parathion, O,O-diethyl O-(4-nitrophenyl) phosphorothioate]: the IC50 in data set [3] worked out at 220 ± 60 µM. In addition, in the data set with quails (oral, quails), the “median lethal dose (LD50)” value is reported as 6 mg/kg. Besides, the “Rate constant inhibition (ki), PSA” value in data set [4] is given as 453.2 ± 5.6 × 10^−3 min^−1. In addition, the “ki value, range” value in data set [5] fell in the range of 0.4532 to 0.8233 min⁻¹.
On to `CCC(=O)SCC[N+](C)(C)C.[I-]` [PrTChI, (2-mercaptoethyl) trimethylammonium iodide propionate], for which the “reaction rate … liver homogenate” value in [1] stood at 113.9 nmol/min/g. Moreover, the “reaction rate … plasma” value in [2] amounted to 211.9 nmol/min/mL.
In the case of `COP(=O)(OC)C(O)C(Cl)(Cl)Cl` (stereo not shown) [Trichlorfon, dimethyl (2,2,2-trichloro-1-hydroxyethyl) phosphonate], the IC50 in [3] stood at 510 ± 90 µM. Further, in the data set with quails (oral, quails), the “median lethal dose (LD50)” value is listed as 22 mg/kg. Also, the inhibition at 11 mg/kg in data set [8] (read-out: % inhibition compared with the control, plasma, AcTChI) turned out to be 12.1%; in data set [8] (read-out: % inhibition compared with the control, plasma, BuTChI), 33.2%; in data set [8] (read-out: % inhibition compared with the control, plasma, PrTChI) it was 11.7%. In [4], the “Rate constant inhibition (ki), PSA” value is on record as 976.9 ± 8.9 × 10^−3 min^−1. In addition, the “ki value, range” value in data set [5] is 0.3451 to 0.9769 min⁻¹.
As to `O=S(=O)(F)Cc1ccccc1` [phenylmethanesulfonyl fluoride], the “level of ChE enzyme activity after incubation” value in the data set on ChE enzyme is reported as “insignificant levels”. The “level of CbE enzyme activity after incubation” value in the data set on CbE enzyme is recorded as “insignificant levels”.

As a reminder, the Vmax is the top rate of the reaction or transport when substrate is in excess. What is called Km is the concentration of substrate that gives half-maximal velocity. What is called inhibition is the drop in the measured response relative to a control, in per cent.
